Experimental data from paper PMC10017709, “Structural basis of selective cannabinoid CB2 receptor activation” (Nature Communications, 2023).
Values joined by “and” are separate entries in the source; they are usually repeats but may differ in a detail not shown here. Identical values can stand only once. Like-named read-outs stand apart in the source and are kept apart here.

Tests used:
[1] = biological target: T1, CB2R WT (Homo sapiens, UniProt P34972); assay: [3H]CP55,940 displacement assay, CB2R WT; assay type: binding; conditions: CB2R - WT; log [ligand] (M) -10; individual replicates
[2] = biological target: T2, CB1R-L359^6.51V (Homo sapiens, UniProt P21554, L359V); assay: [35S]GTPγS assay, CB1R L359V mutant; assay type: biochemical; conditions: CB1R L359V; 10 µM agonist
[3] = biological target: T3, CB1R QuadrupleTM1,7 (Homo sapiens, UniProt P21554, I119V/Q116K/S123C/T377K); assay: [3H]CP55,940 displacement assay, CB1R quadruple mutant; assay type: binding
T3 construct: The WT CB1R and CB2R genes were subcloned into vector pcDNA3.1; HA signal peptide (N); expressed in transfected cells; host or cells: HEK293T (transient, membrane homogenates)

[4] = biological target: CB2R-S285^7.39A (Homo sapiens, UniProt P34972, S285A); assay: [35S]GTPγS assay, CB2R S285A mutant; assay type: biochemical; conditions: S285A mutant; at 10 µM compared to WT; read-out: Emax (%)
[5] = biological target: T4, hCB1R WT (Homo sapiens, UniProt P21554); assay: [35S]GTPγS G protein activation assay, CB1R WT; assay type: biochemical; conditions: CB1R WT; 10 µM agonist
[6] = biological target: CB1R-H270^ECL2L (Homo sapiens, UniProt P21554, H270L); assay: [35S]GTPγS assay, CB1R H270L mutant; assay type: biochemical; conditions: CB1R H270L; 10 µM agonist
[7] = tested on: CB1R QuadrupleTM1,7; assay: [35S]GTPγS assay, CB1R quadruple mutant; assay type: biochemical, human; conditions: CB1R Quadruple TM1,7; 10 µM agonist
[8] = biological target: T4, hCB1R WT; assay: [3H]CP55,940 displacement assay, CB1R WT; assay type: binding
[9] = biological target: CB2R-Quadruple^TM1,7 (Homo sapiens, UniProt P34972, C40S/K279T/K33Q/V36I); assay: [3H]CP55,940 displacement assay, CB2R quadruple mutant; assay type: binding; conditions: QuadrupleTM1,7, individual replicates
[10] = biological target: CB2R-I110^3.29A (Homo sapiens, UniProt P34972, I110A); assay: [35S]GTPγS assay, CB2R I110A mutant; assay type: biochemical; conditions: for [35S]GTPγS binding: I1103.29A, individual replicates
[11] = biological target: T2, CB1R-L359^6.51V; assay: [3H]CP55,940 displacement assay, CB1R L359V mutant; assay type: binding
[12] = biological target: T1, CB2R WT; assay: [35S]GTPγS G protein activation assay, CB2R WT; assay type: biochemical; conditions: for Emax: CB2R WT, read-out: Emax (%); for [35S]GTPγS binding, percentage of CP55,940: individual replicates

T3 sequence (P21554 whole entry Q116K/I119V/S123C/T377K): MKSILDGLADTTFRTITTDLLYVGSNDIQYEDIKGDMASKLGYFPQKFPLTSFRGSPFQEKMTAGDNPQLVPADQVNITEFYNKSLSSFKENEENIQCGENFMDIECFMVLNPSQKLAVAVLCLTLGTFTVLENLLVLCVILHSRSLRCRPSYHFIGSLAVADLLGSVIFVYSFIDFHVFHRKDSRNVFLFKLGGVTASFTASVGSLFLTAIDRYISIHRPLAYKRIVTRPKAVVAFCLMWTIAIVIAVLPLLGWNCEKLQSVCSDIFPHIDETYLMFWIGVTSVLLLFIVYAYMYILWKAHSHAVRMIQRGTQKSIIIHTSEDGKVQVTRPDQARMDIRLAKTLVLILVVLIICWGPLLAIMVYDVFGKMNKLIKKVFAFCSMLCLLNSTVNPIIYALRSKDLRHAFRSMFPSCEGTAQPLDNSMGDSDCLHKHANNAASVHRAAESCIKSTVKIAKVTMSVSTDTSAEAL
T1 sequence (P34972 whole entry): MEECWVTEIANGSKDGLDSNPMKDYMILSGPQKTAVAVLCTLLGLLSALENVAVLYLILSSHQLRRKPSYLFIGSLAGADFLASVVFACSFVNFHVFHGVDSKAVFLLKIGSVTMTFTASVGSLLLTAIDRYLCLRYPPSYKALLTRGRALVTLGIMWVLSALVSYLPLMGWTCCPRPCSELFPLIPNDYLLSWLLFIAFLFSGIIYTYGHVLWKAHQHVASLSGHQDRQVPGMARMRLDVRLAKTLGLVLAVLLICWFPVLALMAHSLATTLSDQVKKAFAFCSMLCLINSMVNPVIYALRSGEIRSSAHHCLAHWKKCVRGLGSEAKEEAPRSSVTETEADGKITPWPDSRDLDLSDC
CB2R-Quadruple^TM1,7, sequence (P34972 whole entry K33Q/V36I/C40S/K279T): as the sequence (P34972 whole entry) above, with K33Q, V36I, C40S, K279T counted along it
T2 sequence (P21554 whole entry L359V): as the sequence (P21554 whole entry Q116K/I119V/S123C/T377K) above, with K116Q, V119I, C123S, L359V, K377T counted along it
T4 sequence (P21554 whole entry): as the sequence (P21554 whole entry Q116K/I119V/S123C/T377K) above, with K116Q, V119I, C123S, K377T counted along it
CB2R-I110^3.29A, sequence (P34972 whole entry I110A): as the sequence (P34972 whole entry) above, with I110A counted along it
CB2R-S285^7.39A, sequence (P34972 whole entry S285A): as the sequence (P34972 whole entry) above, with S285A counted along it
CB1R-H270^ECL2L, sequence (P21554 whole entry H270L): as the sequence (P21554 whole entry Q116K/I119V/S123C/T377K) above, with K116Q, V119I, C123S, H270L, K377T counted along it

CC(C)(C)[C@@H](CO)NC(=O)c1nn(-c2c[n+]([O-])ccn2)c2c1C[C@@H]1C[C@H]21 [APD371]
percentage specific [3H]CP55,940 binding [1]: 91.01% and 87.78% and 110.76% | Agonist-mediated activation [2]: 1.1 ± 0.1 fold over its basal | Displacement (%) of [3H]CP55,940 ([3]; CB1R Quadruple TM1,7, 10 µM compound): 0 ± 25% | percentage specific [3H]CP55,940 binding ([3]; CB1R QuadrupleTM1,7, 10 µM ligand, replicates 1-3): 125.90 percentage and 49.87 percentage and 125.34 percentage | Emax [4]: 49 ± 6% | Agonist-mediated activation [5]: 1.0 ± 0.0 fold over its basal | Agonist-mediated activation [6]: 1.1 ± 0.0 fold over its basal | Agonist-mediated activation [7]: 1.1 ± 0.0 fold over its basal | percentage specific [3H]CP55,940 binding ([8]; CB1R - WT, 10 µM ligand, replicates 1-3): 104.41 percentage and 153.95 percentage and 99.24 percentage | Displacement (%) of [3H]CP55,940 ([8]; CB1R WT, 10 µM compound): -19 ± 17% | percentage specific [3H]CP55,940 binding ([9]; log [ligand] (M) -5): -3.75% and 13.92% and 33.90% | percentage specific [3H]CP55,940 binding ([9]; log [ligand] (M) -6): 31.56% and 68.45% and 21.77% | percentage specific [3H]CP55,940 binding ([9]; log [ligand] (M) -7): 107.34% and 102.91% and 64.85% | percentage specific [3H]CP55,940 binding ([9]; log [ligand] (M) -8): 162.50% and 142.72% and 87.25% | percentage specific [3H]CP55,940 binding ([9]; log [ligand] (M) -9): 116.72% and 143.53% and 100.93% | percentage specific [3H]CP55,940 binding ([9]; log [ligand] (M) -10): 74.84% and 102.27% and 99.53% | Emax ([10]; I110A mutant, at 10 µM compared to WT, read-out: Emax (%)): 28 ± 9% | [35S]GTPγS binding ([10]; log [ligand] (M) -5): 8.02 percentage of WT and 49.60 percentage of WT and 23.20 percentage of WT and 29.78 percentage of WT | [35S]GTPγS binding ([10]; log [ligand] (M) -6): -6.90 percentage of WT and 31.60 percentage of WT and 8.00 percentage of WT and 14.76 percentage of WT | [35S]GTPγS binding ([10]; log [ligand] (M) -7): -11.72 percentage of WT and 23.80 percentage of WT and 1.10 percentage of WT and 21.50 percentage of WT | [35S]GTPγS binding ([10]; log [ligand] (M) -8): -18.83 percentage of WT and 1.40 percentage of WT and -5.80 percentage of WT and 9.14 percentage of WT | [35S]GTPγS binding ([10]; log [ligand] (M) -9): -17.87 percentage of WT and 6.80 percentage of WT and -8.60 percentage of WT and -1.19 percentage of WT | [35S]GTPγS binding ([10]; log [ligand] (M) -10): -16.57 percentage of WT and -10.00 percentage of WT and -2.40 percentage of WT and -10.68 percentage of WT | Displacement (%) of [3H]CP55,940 ([11]; CB1R L359V, 10 µM compound): 18 ± 9% | percentage specific [3H]CP55,940 binding ([11]; CB1R L3596.51V, 10 µM ligand, replicates 1-3): 78.52 percentage and 68.29 percentage and 98.34 percentage | Emax ([12]; maximum effect at 10 µM compared to WT (Suppl. Table 6)): 109 ± 3% | Emax ([12]; maximum effect compared to CP55,940): 134 ± 12% | [35S]GTPγS binding, percentage of CP55,940 ([12]; log [agonist] (M) -5): 148.28% and 110.29% and 144.01% | [35S]GTPγS binding, percentage of CP55,940 ([12]; log [agonist] (M) -6): 121.47% and 91.68% and 110.37% | [35S]GTPγS binding, percentage of CP55,940 ([12]; log [agonist] (M) -7): 71.38% and 61.86% and 107.40% | [35S]GTPγS binding, percentage of CP55,940 ([12]; log [agonist] (M) -8): 40.70% and 28.22% and 92.24% | [35S]GTPγS binding, percentage of CP55,940 ([12]; log [agonist] (M) -9): -4.49% and -11.58% and 35.79% | [35S]GTPγS binding, percentage of CP55,940 ([12]; log [agonist] (M) -10): 14.57% and -14.11% and 7.29%
